# Experimental data reported in paper PMC6752957, “Beta-defensins and analogs in Helicobacter pylori infections: mRNA expression levels, DNA methylation, and antibacterial activity” (PLoS ONE, 2019).
# No end group written: not given here.
# Legend:
# [1] = cited from earlier work; for antimicrobial activity at high NaCl concentrations: background statement of the introduction
# Source text: Defensins exert their killing activity against bacteria, yeasts, fungi, and viruses. The activity of antimicrobial peptides involves the initial electrostatic binding to the cell membrane of microorganisms and subsequent incorporation into the membrane. This antimicrobial action induces damage or even destruction of the microbial cell membrane via pore formation. […] We previously reported the killing activity of β-defensin ...
# [2] = system: H. pylori (ATCC49503 (tox+ strain 60190)); experiment: CFU assay of antimicrobial activity against H. pylori, with salt dependence; type: cell-based, Helicobacter pylori
# Description: CFU assays of the antimicrobial activities of HBDs against H. pylori (ATCC49503 (tox+ strain 60190); American Type Culture Collection, ATCC) were performed. The toxin-producing H. pylori strain was revived from frozen stocks by seeding on a blood agar plate (7% horse blood) at 37°C for 3 days in microaerophilic conditions (O2:10% and […]) generated with Anaeropack Campylo (Mitsubishi Gas Chemicals Corp.). Bacteria harvested from the plates were suspended in 200 ml of brain heart infusion broth (10% fetal calf serum) and grown in liquid culture at 37°C for three days while shaking in a monitored microaerophilic atmosphere.
# H. pylori was incubated with HBDs for two hours at 37°C. Two concentrations of peptides (2.5 μM and 12.5 μM) were used. For the salt dependence assay, 0, 50, 100, and 200 mM concentrations of NaCl were added in the incubation buffer as previously described. Each assay was done in triplicate.
# Antimicrobial activity of HBD2-4 and the analogs 3N and 3NI was evaluated on H. pylori, cultured on HP agar for 4 d after a […] pre-incubation with or without chemically synthesized HBD-2-4 and 3N and 3NI analogs. The two peptide sequences are derived from HBD1 and HBD3. 3N analog is the HBD3 sequence without the N-terminal domain that HBD1 lacks.
# We evaluated two concentrations of every peptide (2.5 and 12.5 μM) and 4 NaCl concentrations (0, 50, 100, and 200 mM). Antibacterial activity of 3NI against H. pylori started at concentrations as low as 2.5 μM in the presence of at least 200 mM NaCl.
Substance,antimicrobial activity at high NaCl concentrations [1],other results
"ELDRIC^1GYGTARC^2RKK-C^3RSQEYRIGRC^4PNTYAC^5C^6LRK (bicyclic or more) [HBD4, human beta-defensin 4, purchased from Peptides International]",reduced by high NaCl concentrations,
"GIGDPVTC^1LKSGAIC^2HPVFC^3PRRYKQIGTC^4GLPGTKC^5C^6KKP (bicyclic or more) [HBD2, human beta-defensin 2, purchased from Peptides International]",reduced by high NaCl concentrations,
"GIINTLQKYYC^1RVRGGRC^2AVLSC^3LPKEEQIGKC^4STRGRKC^5C^6RRKK (bicyclic or more) [HBD3, human beta-defensin 3, purchased from Peptides International]",still active up to 150 mM NaCl concentrations,
"HBD1: human beta-defensin 1, constitutively synthesized; only mentioned in background, not tested here (DHYNCVSSGGQCLYSACPIFTKIQGTCYRGKAKCCK; not fully specified; ends and bridges not checked; UniProt P60022 33-68, looked up)",reduced by high NaCl concentrations,
KYYC^1RVRGGRC^2AVLSC^3PIFTKIQGTC^4STRGRKC^5C^6RRKK (bicyclic or more) [3NI],,"resistance of killing activity to high NaCl concentrations ([1]; earlier work of the authors): resistant to high NaCl concentrations; antibacterial activity against H. pylori in contrast to wild-type peptides ([2]; 2.5 and 12.5 μM, 0, 50, 100 and 200 mM NaCl (Fig 4 title)): increased antibacterial activity; concentration at which antibacterial activity against H. pylori started ([2]; in the presence of at least 200 mM NaCl, CFU assay, peptides tested at 2.5 and 12.5 μM, triplicate): 2.5 µM"
QKYYC^1RVRGGRC^2AVLSC^3LPKEEQIGKC^4STRGRKC^5C^6RRKK (bicyclic or more) [3N],,"antibacterial activity against H. pylori at 12.5 μM ([2]; 12.5 μM peptide, 0, 50, 100 and 200 mM NaCl, 3 independent experiments (Fig 4)): little antibacterial effect"
